Data on 1 compound can be found in patent US20220273660A1, “MEK INHIBITOR FOR TREATMENT OF STROKE” (EDVINCE AB, priority 2019, published 2022).

The structures appear in SMILES notation. “Also recorded” adds a separate entry of the source.

The subject of assay [1] is rat basilar arteries (contractile ETB receptors). As to the kind of experiment: 48 h organ culture of basilar artery, S6c (ETB agonist)-induced contraction in wire myograph. In kind it is cell-based. As to the method: (§1) Rats were sedated with O2/CO2 (30/70%) and sacrificed by decapitation. Brains were gently removed and chilled in a cold oxygenated buffer solution of the following composition: 119 mM NaCl, 4.6 mM KCl, 1.5 mM CaCl2, 1.2 mM MgCl2, 1.2 mM NaH2PO4, 15 mM NaHCO3 and 5.5 mM Glucose; pH 7.4. The basilar artery (BA) was carefully dissected from the brain in a physiological buffer solution followed by either OC (naïve animals) or directly mounted in a wire myograph (arteries from rats which has undergone surgical procedures). Segments were incubated for 48 hours at 37° C. in humidified 5% CO2/O2 in DMEM supplemented with streptomycin and penicillin with inhibitors or vehicle (DMSO). Culture media was changed after 24 hours.
For contractility measurements, both incubated BAs (ex vivo) and BAs after surgical procedure (in vivo) were cut into segments and mounted on a pair of metal wires (40 μm) in a myograph bath. The arteries from OC were mounted the same way after 48 hours in media. One wire was attached to a micro-meter screw which allows for fine adjustments of the distance between the wires, controlling the vascular tone.
The segments were equilibrated in physiological buffer aerated with 95% O2/5% CO2, pH of 7.4, temperature set at 37° C. and the wires were separated for isometric pretension at 2 Nm^−1. The arterial segments were exposed two or three times with 60 mM K^+, by exchanging the buffer with a 60 mM K^+ buffer solution. To maintain equal osmolarity, a proportional amount of Na^+ had been removed from the buffer. An absolute cut-off was set at 2.0 mN K^+max for inclusion of arterial segments from rats that underwent the surgical procedure. Endothelium function was evaluated with the addition of 5-HT (3.10^−7 M) followed by carbachol (10^−5 M). For arteries from the OC the protocol was as followed: first a cumulative concentration-response curve to sarafotoxin 6C (S6c, 10^−14-10^−7 M), followed by a concentration-response curve to endothelin-1 (ET-1, 10^−14-10^−7 M). At peak ET-1 (10^−7 M), the buffer was changed to a Ca^2+-free buffer containing 10^−7 M ET-1 and nimodipine (L-type of voltage dependent Ca^2+ channel entry blocker, 10^−7 M). A concentration-response curve to Ca^2+ (0.0125-3 mM) was then performed. When vasodilation was investigated arteries was precontracted with U46619 (1.10^−7-3.10^−7 M) or K^+ (41 mM) and cumulative concentration-response curves was performed by adding calcitonin gene-related peptide (CGRP, 10^−12-10^−7 M), carbachol (10^−10-10^−5 M) or SNP (10^−11-10^−4 M).
Contractile responses of each segment were adjusted according to the length of the artery and are expressed as mN/mm (Nm^−1). […] To compare ET-1 sensitivity, arteries were normalized to the percentage of the individual vessel ET-1max. When the artery reached maximum contraction before the last concentration was added, the curves were constrained to the max contraction. The relative log IC50/log EC50 is the concentration corresponding to a response midway between the estimates of the lower and upper plateaus. The Emax is the maximal contraction in the concentration response curve and ET-1max is the maximal contraction to ET-1. All quantitative data is presented as mean±standard error of the mean (SEM), unless otherwise stated.

The test system of assay [2] is rat basilar arteries. As to the kind of experiment: 48 h organ culture of basilar artery, VDCC independent contraction (Ca2+ curve after ET-1 precontraction with nimodipine). It is filed as cell-based. As to conditions: 1 μM inhibitor, 48 h OC, 10^-7 M nimodipine. As to the method:
as §1
The segments were equilibrated in physiological buffer aerated with 95% O2/5% CO2, pH of 7.4, temperature set at 37° C. and the wires were separated for isometric pretension at 2 Nm^−1. The arterial segments were exposed two or three times with 60 mM K^+, by exchanging the buffer with a 60 mM K^+ buffer solution. To maintain equal osmolarity, a proportional amount of Na^+ had been removed from the buffer. An absolute cut-off was set at 2.0 mN K^+max for inclusion of arterial segments from rats that underwent the surgical procedure. Endothelium function was evaluated with the addition of 5-HT (3.10^−7 M) followed by carbachol (10^−5 M). […]

Assay [3] has as its system rat subarachnoid haemorrhage model. As to the kind of experiment: Rotating pole test after SAH, intraperitoneal treatment. In kind it is in vivo. As to conditions: SAH + i.p. treatment, 48 hours post-SAH. As for the experimental part: Gross sensorimotor function was evaluated using a rotating pole test, including a baseline evaluation on the day before induction of SAH. Briefly, movement across a 10-rpm rotating pole (45 mm diameter, 150 cm length) was evaluated with a cage at the end that contain the rat's own bedding material (“smells like home”). Rat performance was scored according to the following definitions: Low, the animal is unable to cross the pole without falling off; High, the animal can traverse the entire pole without falling off. All animals were trained to traverse the pole before surgery. Pre-SAH and on day 1 and 2 after surgery, each animal was scored twice for left and right rotation respectively, i.e. 4 counts per animal. Animals were graded by personnel blinded to the experimental groups of the animals. Data are shown percentage as % high score count/total score count.
For the intraperitoneal treatment (i.p) the compound was dissolved in 10% cremophor EL (Kolliphor EL) and 10% PEG400 in NaCl, which also served as vehicle. The total dose was administered as two treatments (6 hours and 24 hours). Animals were given 2.5 ml isotonic saline s.c. to avoid dehydration, immediately after surgery and in conjunction with the treatments.

Turning to `CC(=O)Nc1cccc(-n2c(=O)n(C3CC3)c(=O)c3c(Nc4ccc(I)cc4F)n(C)c(=O)c(C)c32)c1` [trametinib], the “inhibition of S6c-induced contraction (initial screening groups)” value in assay [1] (1 μM inhibitor, 48 h organ culture, S6c contraction relative to 60 mM K+) was “Highly effective; also recorded: almost completely inhibited”. Also, the IC50 in assay [1] (Rattus norvegicus, 48 h organ culture, inhibition of S6c-induced contraction, read-out: pIC50 (based on the Emax for S6c) (converted)) is 20.9 nM. Besides, the “estimated inhibitor effect in the ex vivo OC study” value in assay [1] (at predicted CSF concentration of approximately 10^-7 M) is about 75%. Moreover, the VDCC independent contraction result in assay [2] is given as “significantly prevented”. Also, in assay [3], the “rotating pole Score48 h (% high score count/total score count)” value was 100%.
